{"source": "patent US20070280957A1", "about": "“Change of the Load State of Mhc Molecules” (priority 2004, published 2007)", "key": {"HLA-DR1 (DRB1*0101)": {"biological_target": "T1, HLA-DR1 (DRB1*0101) (Homo sapiens, UniProt P01903+P01911, A100R/D57E/F55L/F60I/F76Y/I96L/L162R/M171V/P40L/Q125E/R42F/V115G/Y59C)", "T1 construct": "HLA-DR-expressing 721.221 cells; endogenous in cells; host or cells: 721.221 cells", "assay": "HLA-DR1-restricted T-cell response after catalysed loading of 721.221 cells (EvHA/X5, hCII19.3 T-cells)", "assay_type": "cell-based", "details": "for catalytic activity on HLA-DR1, dose-activity curves of T-cell stimulation: HA306-318 on 721.221 cells, EvHA/X5 T-cells", "description": "In the present comparison test, the enhancement of the T-cell response by catalysis of the loading of HLA-expressing cells was investigated. […] Either HA306-318 (see also FIG. 3, left-hand panel) or CO260-273 (see also FIG. 3, right-hand panel) was used as peptide antigen. After the loading, the cells were washed and used to stimulate EvHA/X5 and hCII19.3 cells, respectively.\nIn order to investigate the catalysis of a HLA-DR1 (DRB1*0101)-restricted T-cell response by various catalytically active adamantyl compounds, dose-activity curves of the catalysis of a HLA-DR1 (DRB1*0101)-restricted T-cell response were prepared. The experiment was carried out analogously to Comparison Experiment 3.3, the peptide antigen HA306-318 being loaded onto 721.221 cells in order thereby to stimulate EvHA/X5 T-cells. […] Because the position of the dose-activity curves is evidently also determined by the side chain, a modulating activity can be attributed thereto."}, "MHC class II": {"tested_on": "MHC class II", "details": "prior-art small molecules with H-donor properties; cited from earlier work"}, "[1]": {"biological_target": "T2, HLA-DR4 (DRB1*0401) on L243.6 cells (Homo sapiens, UniProt P01903+P01911, A100K/A169T/F76Y/I96L/K127E/L162R/M171V/N62H/P40V/Q125Y/R42H/S133A/S149N/S66Y/V115G/V209L/W38E)", "T2 construct": "expressed in transfected cells; host or cells: L243.6 fibroblast cells", "assay": "Loading of HLA-DR4 on the cell surface of fibroblast cells with biotinylated peptide, flow cytometry", "assay_type": "cell-based", "details": "4 hours, 37° C., active at markedly less than a tenth of the pCP concentration", "method": "(§1) The catalytic properties of found substances on the loading of MHC class II molecules located on cells was determined in cell loading experiments. To this end, from 50,000 to 100,000 cells in 50 μl of DMEM were mixed with 50 μl of 24 μM HA-biot. dissolved in DMEM and 50 μl of catalyst solution (different concentrations dissolved in DMEM with a maximum DMSO content of 3%) and incubated for 4 hours at 37° C. and 10% CO2. As controls, only 50 μl of peptide solution and 50 μl of DMEM were added to cells in several batches. At the end of the incubation time, the cells were centrifuged off for 5 minutes at 1300 rpm, and supernatant medium was removed. […] After removal of the supernatant, the cell pellets were again detached and taken up in 50 μl/well of streptavidin-phycoerythrin solution (SA-PE stock solution (1 mg/ml) diluted 1:200 with 2% FCS-PBS). Staining was carried out for 30 minutes at 4° C. with the exclusion of light, in order to avoid excessive decomposition of the fluorescent dyes. […] The cells were then analysed using a continuous-flow cytometer. […]"}, "[2]": {"biological_target": "T3, HLA-DR1 (DRB1*0101) on L57.23 cells (Homo sapiens, UniProt P01903+P01911, A100R/D57E/F55L/F60I/F76Y/I96L/L162R/M171V/P40L/Q125E/R42F/V115G/Y59C)", "T3 construct": "expressed in transfected cells; host or cells: L57.23 fibroblast cells", "assay": "Loading of HLA-DR1 on the cell surface of fibroblast cells with biotinylated peptide, flow cytometry", "assay_type": "cell-based", "details": "4 hours, 37° C., active at markedly less than a tenth of the pCP concentration", "method": "as §1"}, "[3]": {"biological_target": "T4, soluble HLA-DR1 (DRA1*0101, DRB1*0101) (Homo sapiens, UniProt P01903+P01911, A100R/D57E/F55L/F60I/F76Y/I96L/L162R/M171V/P40L/Q125E/R42F/V115G/Y59C)", "T4 construct": "shortened α- and […]-chains without the cytoplasmatic and transmembrane portion of the MHC molecule; made in house; host or cells: S2 insect cells", "assay": "Loading of empty soluble HLA-DR1 with biotinylated HA306-318 peptide, sandwich ELISA", "assay_type": "biochemical", "method": "In order to monitor catalysis of the loading of HLA-DR molecules by compounds of formulae I, IA, II, III and IV1 to IV3, empty, soluble DR molecules were incubated with biotinylated, high-affinity peptide, and these were then detected in a sandwich ELISA for the MHC complexes.\nAll the batches were then adjusted to a final volume of 10 μl with 2% BSA-PO4^3− buffer (in the case of HLA-DR1 only with PO4^3− buffer). The reaction was started by incubation at 37° C. in a thermocycler. After 40 minutes, the incubation was terminated and the loading reaction was stopped by storage on ice and addition of 50 μl of ice-cold 1% BSA-PBS.\nThe detection of bound peptide was carried out by means of a sandwich ELISA. […] Between these steps, the plate was washed twice with PBS-0.05% Tween with the aid of a PW plate-washing device (Tecan Industries) and, before filling with fresh solution, all remaining liquid residues were removed by tapping on Scott®Natura paper towels (Hakle-Kimberly Deutschland GmbH). After blocking of non-specific binding sites, the plate was washed three times and filled with 50 μl/well of 1% BSA-PBS. 2×25 μl per reaction batch were transferred to the plate as double values and were carefully mixed thereon (total volume per well: 75 μl). From each filled series, a further 25 μl/well were then again titrated on the plate in a series of two-stage dilutions (final volume per well: 50 μl). The plates so filled were then stored for 2 hours at 4° C. under stationary conditions. Each plate was then washed six times as described above and filled with 80 μl/well of Eu^3+-streptavidin staining solution (europium-streptavidin stock solution diluted 1:10,000 with 1% BSA-PBS) and incubated for 30 minutes at room temperature (RT). After washing for a further eight times, 100 μl/well of fluorescence-activated solution (enhancer) were then added and the signal was measured by means of a Victor^2-multilabelcounter (Wallac Oy) at an excitation wavelength of 340 nm and an emission wavelength of 615 nm in time-resolving mode.\nThe following experiment was therefore carried out. One catalyst in a fixed concentration of 0.05 mM was introduced into each of a number of batches for loading HLA-DR1 with HA-biot. The same concentration of a second catalyst was then added to each batch. As controls, 1×1% DMSO was added and, as negative control, a reaction mixture was prepared with 2×1% DMSO. The reaction mixtures were then incubated for 40 minutes as already described and the load was measured in a sandwich ELISA.\nThe resulting load was then determined in an ELISA using biotinylated peptide (see FIG. 1).\nThe amount of peptide/MHC complexes formed within this time was then determined by means of an ELISA assay (capture antibody: anti-HLA-DR; detection: fluorescent-labelled streptavidin). The activities of the individual compounds were grouped on the basis of the dose/activity curves obtained thereby."}, "[4]": {"biological_target": "T5, soluble HLA-DR1 (DRB1*0101) (Homo sapiens, UniProt P01903+P01911, A100R/D57E/F55L/F60I/F76Y/I96L/L162R/M171V/P40L/Q125E/R42F/V115G/Y59C)", "T5 construct": "shortened α- and […]-chains without the cytoplasmatic and transmembrane portion of the MHC molecule; made in house; host or cells: S2 insect cells", "assay": "MHC loading assay for identifying immunotoxic compounds (4 hours, ELISA)", "assay_type": "biochemical", "details": "biotinylated HA306-318"}, "[5]": {"biological_target": "T6, empty, soluble HLA-DR1 complexes (Homo sapiens, UniProt P01903+P01911, A100R/D57E/F55L/F60I/F76Y/I96L/L162R/M171V/P40L/Q125E/R42F/V115G/Y59C)", "T6 construct": "shortened α- and […]-chains without the cytoplasmatic and transmembrane portion of the MHC molecule; made in house; host or cells: S2 insect cells", "assay": "High-throughput HLA-DR1 loading test of the substance library and validation of hits", "assay_type": "biochemical", "details": "final concentration of 0.4 mM", "method": "The compounds of formulae I, IA, II, III and IV1 to IV3 to be tested were supplied in 384-well plates in the form of a 160 mM starting library, dissolved in DMSO, from which an aliquot library had to be prepared. By manually removing 2 μl/well and diluting with 38 μl/well of DMSO, a 8 mM stock library was prepared, which was used for all further tests. In order to analyse the compounds of formulae I, IA, II, III and IV1 to IV3 that were present for their effect on MHC class II molecules, a high-throughput method based on a HLA-DR1 loading test was used. To this end, two 384-well Nunc-Maxisorp plates (ELISA plates) per library plate were coated overnight at 4° C. with 60 μl/well of monoclonal anti-HLA-DR antibody (L243 stock solution (1 mg/ml) diluted 1:500 in 100 mM NaHCO3). The plates were then washed three times by immersion in PBS-0.05% Tween solution and removal of air bubbles by tapping the plate against the wall of the washing vessel. Remaining washing solution was removed by beating the plates on paper towels, and 80 μl/well of 2% BSA-PBS were introduced. Non-specific binding was to be prevented by incubation at 37° C. for at least one hour. […] Excess staining solution was then removed by washing eight times with PBS-0.05% Tween, and 80 μl/well of fluorescence-activated solution (enhancer) were added manually by means of a pipette. […]"}}, "data": [{"molecule": "COc1ccc2c(c1)OCC2=NO", "note": "[#3651, 6-methoxybenzofuran-3(2H)-one-oxime]", "values": [{"measurement": "catalytic activity on HLA-DR1, dose-activity curves of T-cell stimulation", "setting": "HLA-DR1 (DRB1*0101)", "value": "weaker but still exhibits higher activity than pCP"}]}, {"molecule": "CCCO", "note": "[n-propanol]", "values": [{"measurement": "concentration required for use", "setting": "MHC class II", "value": "over 200 mM"}]}, {"molecule": "NNC(=O)c1cc(C23CC4CC(CC(C4)C2)C3)n[nH]1", "note": "[AdCaPy, 3-(1-adamantyl)-5-carbohydrazide pyrazole]", "values": [{"measurement": "loading of cells with HA306-318, dose-activity curves compared with pCP", "setting": "[1]", "value": "substantially more active than pCP"}, {"measurement": "immune response of HLA-DR1-restricted T-cells", "setting": "HLA-DR1 (DRB1*0101); HA306-318 (EvHA/X5) or CO260-273 (hCII19.3) loaded onto 721.221 cells", "value": "markedly enhanced"}, {"measurement": "loading of cells with HA306-318, dose-activity curves compared with pCP", "setting": "[2]", "value": "substantially more active than pCP"}]}, {"molecule": "Oc1ccccc1", "note": "[phenol]", "values": [{"measurement": "concentration required for use", "setting": "MHC class II", "value": 30, "unit": "mM"}]}, {"molecule": "Oc1ccccc1-c1ccccc1", "note": "[2-HBP]", "values": [{"measurement": "relative increase in the load, amount doubled", "setting": "[3]; 0.05 mM + same concentration of the same catalyst", "value": "increases"}, {"measurement": "relative increase in the load", "setting": "[3]; 0.05 mM catalyst + 1% DMSO, 40 minutes", "value": "about 10%"}]}, {"molecule": "OCC(O)CNc1ccccc1", "note": "(stereo not drawn) [III 36, 3-N-phenylaminopropanediol]", "values": [{"measurement": "acceleration of the loading of MHC molecules with peptide ligands", "setting": "[4]", "value": "able to accelerate the loading of MHC molecules with peptide ligands"}, {"measurement": "activity compared with pCP", "setting": "[4]", "value": "markedly lower than that of pCP"}]}, {"molecule": "dichlorophenylhydroxyiminoacetamide [DPHIA]", "values": [{"measurement": "catalytic activity in the ELISA", "setting": "[3]", "value": "similarly good results as AdaEtOH"}, {"measurement": "toxicity", "setting": "L57.23 cells", "value": "even lower toxic effects than AdaEtOH or 4-HBP"}]}, {"molecule": "CC(C)(O)C1CCC2(C)C(C1)C2(Cl)Cl", "note": "(stereo not drawn) [#4230, 2-(7,7-dichloro-6-methyl-bicyclo[4.1.0]heptan-3-yl)-propan-2-ol]", "values": [{"measurement": "catalytic activity on HLA-DR1, dose-activity curves of T-cell stimulation", "setting": "HLA-DR1 (DRB1*0101)", "value": "corresponds approximately to that of adamantylethanol"}]}, {"molecule": "Oc1cc(Cl)c(Cl)cc1O", "note": "[DCC, 1,2-dichloro-4,5-dihydroxybenzene, reference compound]", "values": [{"measurement": "catalytic activity of phenol/aniline compounds, comparison of dose-activity curves", "setting": "[3]; accelerated loading of soluble HLA-DR1 with HA306-318, compared with pCP", "value": "slightly increased activity"}, {"measurement": "load signal (threshold value of library analysis)", "setting": "[5]", "value": "15,000 counted events"}]}]}
